Where a name gives a salt, the structure may show the parent alone.
What follows are compounds tested on 293T-HRE-GFP-luc cells (assay: Cell-based reporter assay for IC50 determinations). Details: hypoxia 6 hrs (1% O2), luminescence, read-out: IC50 Classification.
Description: Cell-Based Reporter Assay for IC50 Determinations
293T-HRE-GFP-luc cells were routinely maintained in DMEM media (high glucose version with GlutaMAX and HEPES, Gibco, catalog #10564) supplemented with 10% fetal bovine serum and 2 μg/mL puromycin (Invitrogen, catalog #A11138-03) using a humidified incubator (normoxia conditions consisting of 37° C., 5% CO2 and ambient O2).
In preparation for the reporter assay, cells were harvested and resuspended in DMEM media (high glucose version with GlutaMAX and HEPES) supplemented with 10% fetal bovine serum. Cells were inoculated into 384-well white Culturplates (Perkin Elmer catalog #6007680) at a density of 12,000 cells/well in a volume of 30 μL. The microplates were incubated overnight (approximately 17-19 hours) at 37° C. with 5% CO2 and ambient O2. Stock solutions of the test compounds were prepared in DMSO (Sigma, Catalog #D2650) and serially diluted 1:3 using DMSO. Compounds were additionally diluted (1:50) with culturemedium and 10 μL were added per well to the Culturplate. Following a 30 min. incubation under normoxia conditions, the plates were incubated in hypoxia for 6 hrs. (37° C., 5% CO2 and 1% O2). Steadylite Plus (Perkin Elmer, catalog #6016751) was then added (40 μL/well), the plates were mixed on an orbital shaker at room temperature in the dark for 15 min., and luminescence was measured using an Envision plate reader (Perkin Elmer). IC50 values were calculated using a four-parameter logistic curve fit. Results are shown below in Table 2; ND indicates no data.
`Cc1nc(-c2nc(-c3ccc(OC(F)(F)F)cc3)no2)nn1Cc1ccnc(N2CCNCC2)c1` [Example 1, 4-(4-((5-Methyl-3-(3-(4-(trifluoromethoxy)phenyl)-1,2,4-oxadiazol-5-yl)-1H-1,2,4-triazol-1-yl)methyl)pyridin-2-yl)piperazin-1-ium trifluoroacetate] gave an IC50 of 0.1 to 1 µM. Work on `Cc1nc(-c2ccc(-c3ccccc3)o2)nn1Cc1ccnc(N2CCN(C)CC2)c1` [Example 3] yielded an IC50 of 1 to 10 µM. Compound `FC(F)(F)Oc1ccc(-c2noc(-c3nc(-c4cccnc4)n(Cc4ccccc4)n3)n2)cc1` [Example 4, 3-(1-Benzyl-3-(3-(4-(trifluoromethoxy)phenyl)-1,2,4-oxadiazol-5-yl)-1H-1,2,4-triazol-5-yl)pyridin-1-ium trifluoroacetate] has an IC50 of less than 0.1 µM. `Cc1nc(-c2nnc(-c3ccccc3)o2)nn1Cc1ccnc(N2CCC(C)(C)CC2)c1` [Example 5, 2-(4,4-Dimethylpiperidin-1-yl)-4-((5-methyl-3-(5-phenyl-1,3,4-oxadiazol-2-yl)-1H-1,2,4-triazol-1-yl)methyl)pyridin-1-ium trifluoroacetate] gave an IC50 of 1 to 10 µM. `Cc1nc(-c2nnc(-c3ccc(OC(F)(F)F)cc3)o2)nn1Cc1cccc(N2CCN(C)CC2)c1` [Example 6, 1-Methyl-4-(3-((5-methyl-3-(5-(4-(trifluoromethoxy)phenyl)-1,3,4-oxadiazol-2-yl)-1H-1,2,4-triazol-1-yl)methyl)phenyl)piperazin-1-ium trifluoroacetate] showed an IC50 of less than 0.1 µM. `Cc1nc(-c2nnc(-c3ccc(OC(F)(F)F)cc3)o2)nn1Cc1ccnc(N2CCN(C)CC2)c1` [Example 7, 1-Methyl-4-(4-((5-methyl-3-(5-(4-(trifluoromethoxy)phenyl)-1,3,4-oxadiazol-2-yl)-1H-1,2,4-triazol-1-yl)methyl)pyridin-1-ium-2-yl)piperazin-1-ium trifluoroacetate] gave an IC50 of 0.1 to 1 µM. With `Cc1nc(-c2nnc(-c3ccc(C(C)(C)C)cc3)o2)nn1Cc1cccc(N2CCN(C)CC2)c1` [Example 8, 2-(4-(tert-Butyl)phenyl)-5-(5-methyl-1-(3-(4-methylpiperazin-1-yl)benzyl)-1H-1,2,4-triazol-3-yl)-1,3,4-oxadiazole] the IC50 was less than 0.1 µM. `Cc1nc(-c2nc(-c3ccc(C(C)(C)C)cc3)no2)nn1Cc1ccnc(N2CCN(C)CC2)c1` [Example 9, 3-(4-(tert-Butyl)phenyl)-5-(5-methyl-1-((2-(4-methylpiperazin-1-yl)pyridin-4-yl)methyl)-1H-1,2,4-triazol-3-yl)-1,2,4-oxadiazole] showed an IC50 of less than 0.1 µM. With `Cc1nc(-c2nc(-c3ccc(OC(F)(F)F)cc3)no2)nn1Cc1ccnc(N2CCOCC2)c1` [Example 10, 4-(4-((5-Methyl-3-(3-(4-(trifluoromethoxy)phenyl)-1,2,4-oxadiazol-5-yl)-1H-1,2,4-triazol-1-yl)methyl)pyridin-2-yl)morpholine] the IC50 was less than 0.1 µM. `Cc1nc(-c2nc(-c3ccc(OC(F)(F)F)cc3)no2)nn1Cc1cccc(NCCN(C)C)c1` [Example 11, N,N-Dimethyl-2-((3-((5-methyl-3-(3-(4-(trifluoromethoxy)phenyl)-1,2,4-oxadiazol-5-yl)-1H-1,2,4-triazol-1-yl)methyl)phenyl)amino)ethanaminium trifluoroacetate] showed an IC50 of 1 to 10 µM. In the case of `COC(=O)c1cccc(Cn2nc(-c3nc(-c4ccc(OC(F)(F)F)cc4)no3)nc2C)c1` [Example 12, Methyl 3-((5-methyl-3-(3-(4-(trifluoromethoxy)phenyl)-1,2,4-oxadiazol-5-yl)-1H-1,2,4-triazol-1-yl)methyl)benzoate], the IC50 is reported as less than 0.1 µM. For `Cc1nc(-c2nc(-c3ccc(OC(F)(F)F)cc3)no2)nn1Cc1cccc(C(=O)N2CCN(C)CC2)c1` [Example 13, (3-((5-Methyl-3-(3-(4-(trifluoromethoxy)phenyl)-1,2,4-oxadiazol-5-yl)-1H-1,2,4-triazol-1-yl)methyl)phenyl)(4-methylpiperazin-1-yl)methanone], the IC50 was less than 0.1 µM. In the case of `COCCCNC(=O)c1cccc(Cn2nc(-c3nc(-c4ccc(OC(F)(F)F)cc4)no3)nc2C)c1` [Example 14, N-(3-methoxypropyl)-3-((5-methyl-3-(3-(4-(trifluoromethoxy)phenyl)-1,2,4-oxadiazol-5-yl)-1H-1,2,4-triazol-1-yl)methyl)benzamide], the IC50 is reported as less than 0.1 µM. `Cc1ccc(Cn2nc(-c3nc(-c4ccc(OC(F)(F)F)cc4)no3)nc2C)cc1` [Example 15, 5-(5-Methyl-1-(4-methylbenzyl)-1H-1,2,4-triazol-3-yl)-3-(4-(trifluoromethoxy)phenyl)-1,2,4-oxadiazole] gave an IC50 of less than 0.1 µM. In the case of `Cc1nc(-c2nc(-c3ccc(OC(F)(F)F)cc3)no2)nn1Cc1cn2ccccc2n1` [Example 16, 5-(1-(imidazo[1,2-a]pyridin-2-ylmethyl)-5-methyl-1H-1,2,4-triazol-3-yl)-3-(4-(trifluoromethoxy)phenyl)-1,2,4-oxadiazole], the IC50 is reported as 0.1 to 1 µM. In the case of `Cc1nc(-c2nc(-c3ccc(OC(F)(F)F)cc3)no2)nn1Cc1cnc(Cl)s1` [Example 17, 5-(1-((2-Chlorothiazol-5-yl)methyl)-5-methyl-1H-1,2,4-triazol-3-yl)-3-(4-(trifluoromethoxy)phenyl)-1,2,4-oxadiazole], the IC50 is reported as 1 to 10 µM. Compound `Cc1nc(-c2nc(-c3ccc(OC(F)(F)F)cc3)no2)nn1Cc1cnc(N2CCOCC2)s1` [Example 18, 4-(5-((5-Methyl-3-(3-(4-(trifluoromethoxy)phenyl)-1,2,4-oxadiazol-5-yl)-1H-1,2,4-triazol-1-yl)methyl)thiazol-2-yl)morpholine] has an IC50 of 1 to 10 µM. With `Cc1nc(-c2nc(-c3ccc(OC(F)(F)F)cc3)no2)nn1Cc1ccnc(Cl)n1` [Example 19, 5-(1-((2-Chloropyrimidin-4-yl)methyl)-5-methyl-1H-1,2,4-triazol-3-yl)-3-(4-(trifluoromethoxy)phenyl)-1,2,4-oxadiazole] the IC50 was 1 to 10 µM. `Cc1nc(-c2nc(-c3ccc(OC(F)(F)F)cc3)no2)nn1Cc1ccnc(N2CCN(C)CC2)n1` [Example 20, 5-(5-Methyl-1-((2-(4-methylpiperazin-1-yl)pyrimidin-4-yl)methyl)-1H-1,2,4-triazol-3-yl)-3-(4-(trifluoromethoxy)phenyl)-1,2,4-oxadiazole] gave an IC50 of less than 0.1 µM. In the case of `Cc1nc(-c2nc(-c3ccc(S(C)(=O)=O)cc3)no2)nn1Cc1ccnc(N2CCN(C)CC2)c1` [Example 21, 1-Methyl-4-(4-((5-methyl-3-(3-(4-(methylsulfonyl)phenyl)-1,2,4-oxadiazol-5-yl)-1H-1,2,4-triazol-1-yl)methyl)pyridin-1-ium-2-yl)piperazin-1-ium bis-trifluoroacetate], the IC50 is reported as 1 to 10 µM. With `Cc1ccc(-c2noc(-c3nc(C)n(Cc4ccnc(N5CCN(C)CC5)c4)n3)n2)cc1` [Example 22, 1-Methyl-4-(4-((5-methyl-3-(3-(p-tolyl)-1,2,4-oxadiazol-5-yl)-1H-1,2,4-triazol-1-yl)methyl)pyridin-1-ium-2-yl)piperazin-1-ium bis-trifluoroacetate] the IC50 was 0.1 to 1 µM. `Cc1nc(-c2nc(-c3ccc(OC(F)F)cc3)no2)nn1Cc1ccnc(N2CCN(C)CC2)c1` [Example 23, 4-(4-((3-(3-(4-(Difluoromethoxy)phenyl)-1,2,4-oxadiazol-5-yl)-5-methyl-1H-1,2,4-triazol-1-yl)methyl)pyridin-1-ium-2-yl)-1-methylpiperazin-1-ium bis-trifluoroacetate] showed an IC50 of 0.1 to 1 µM. For `Cc1nc(-c2nc(-c3ccc(OC(F)(F)F)cc3)no2)nn1Cc1ccccc1` [Example 24, 5-(1-Benzyl-5-methyl-1H-1,2,4-triazol-3-yl)-3-(4-(trifluoromethoxy)phenyl)-1,2,4-oxadiazole], the IC50 was 0.1 to 1 µM. In the case of `Cc1nc(-c2nc(-c3ccc(OC(F)(F)F)cc3)no2)nn1Cc1cccc(N2CCN(C)CC2)c1` [Example 25, 1-methyl-4-(3-((5-methyl-3-(3-(4-(trifluoromethoxy)phenyl)-1,2,4-oxadiazol-5-yl)-1H-1,2,4-triazol-1-yl)methyl)phenyl)piperazin-1-ium trifluoroacetate], the IC50 is reported as less than 0.1 µM. `Cc1nc(-c2nc(-c3ccc(OC(F)(F)F)cc3)no2)nn1Cc1ccnc(N2CCC(O)CC2)c1` [Example 26, 1-(4-((5-Methyl-3-(3-(4-(trifluoromethoxy)phenyl)-1,2,4-oxadiazol-5-yl)-1H-1,2,4-triazol-1-yl)methyl)pyridin-2-yl)piperidin-4-ol] was tested, and the IC50 was less than 0.1 µM. `Cc1nc(-c2nc(-c3ccc(OC(F)(F)F)cc3)no2)nn1Cc1ccnc(N2CCC(C#N)CC2)c1` [Example 27, 1-(4-((5-Methyl-3-(3-(4-(trifluoromethoxy)phenyl)-1,2,4-oxadiazol-5-yl)-1H-1,2,4-triazol-1-yl)methyl)pyridin-2-yl)piperidine-4-carbonitrile] gave an IC50 of less than 0.1 µM. `Cc1nc(-c2nc(-c3ccc(OC(F)(F)F)cc3)no2)nn1Cc1ccnc(N2CCCC2)c1` [Example 28, 5-(5-Methyl-1-((2-(pyrrolidin-1-yl)pyridin-4-yl)methyl)-1H-1,2,4-triazol-3-yl)-3-(4-(trifluoromethoxy)phenyl)-1,2,4-oxadiazole] gave an IC50 of less than 0.1 µM. Work on `Cc1nc(-c2nc(-c3ccccc3)no2)nn1Cc1ccnc(N2CCN(C)CC2)c1` [Example 29, 1-Methyl-4-(4-((5-methyl-3-(3-phenyl-1,2,4-oxadiazol-5-yl)-1H-1,2,4-triazol-1-yl)methyl)pyridin-1-ium-2-yl)piperazin-1-ium bis-trifluoroacetate] yielded an IC50 of 1 to 10 µM.

Reference: US10208059B2, “Heterocyclic modulators of HIF activity for treatment of disease” (Board of Regents, University of Texas System, priority 2012, dated 2019)
